Laboratory results published in the NIST ThermoML archive (doi:10.1007/s10765-008-0491-0).

Assay: xn = mol fraction of the nth substance listed
Details: 101 kPa, Liquid; for speed of sound: Sing-around technique in a fixed-path interferometer; for mass density: Vibrating tube method; for viscosity: Capillary tube (Ostwald / Ubbelohde) method

CC(C)CCCC(C)CCCC(C)CCCCC(C)CCCC(C)CCCC(C)C (centres undefined) [2,6,10,15,19,23-hexamethyltetracosane] + CCCCCCCCO
Details	mass density, 293.15 K [kg/m3]	mass density, 303.15 K [kg/m3]	mass density, 308.15 K [kg/m3]	speed of sound, 293.15 K [m/s]	speed of sound, 303.15 K [m/s]	speed of sound, 308.15 K [m/s]	viscosity, 298.15 K [mPa·s]	viscosity, 303.15 K [mPa·s]	viscosity, 308.15 K [mPa·s]
x2 = 0	805.122	801.912	798.709	1381.9	1364.1	1346.5	28.26	22.09	17.77
x2 = 0.0596	805.175	801.944	798.711	1379.9	1362.1	1344.1	24.18	19.21	15.49
x2 = 0.1053	805.299	802.053	798.798	1378.5	1360.4	1343.1	21.92	17.59	14.21
x2 = 0.1563	805.499	802.234	798.947	1376.9	1359.3	1341.5	20.12	16.25	13.14
x2 = 0.2092	805.773	802.479	799.184	1375.7	1357.8	1340.2	18.81	15.26	12.34
x2 = 0.2648	806.107	802.799	799.487	1374.2	1356.4	1338.7	17.88	14.5	11.73
x2 = 0.3404	806.637	803.312	799.989	1372.4	1354.5	1336.8	16.97	13.74	11.13
x2 = 0.398	807.105	803.775	800.439	1370.8	1352.9	1335.3	16.38	13.24	10.72
x2 = 0.4799	807.875	804.507	801.188	1368.6	1350.7	1333.1	15.42	12.45	10.12
x2 = 0.5974	809.279	805.92	802.536	1364.9	1347.1	1329.5	13.55	11.01	9.007
x2 = 0.6988	810.937	807.538	804.116	1361.3	1343.7	1326.1	11.51	9.441	7.786
x2 = 0.8079	813.477	810.008	806.567	1356.9	1339.5	1322.1	9.294	7.693	6.416
x2 = 0.8519	814.812	811.352	807.925	1355.2	1337.8	1320.4	8.533	7.093	5.937
x2 = 0.8942	816.384	812.92	809.463	1353.2	1335.9	1318.7	7.963	6.624	5.572
x2 = 0.9474	818.773	815.429	811.955	1350.6	1333.5	1316.4	7.526	6.288	5.31

CCCCCCCCO [octan-1-ol] + CCCCCCCCCCCCCCCC
x1 = 1
Details	mass density [kg/m3]	speed of sound [m/s]	viscosity [mPa·s]
293.15 K	821.813	1348	–
298.15 K	–	–	7.508
303.15 K	818.796	1330.8	6.344
308.15 K	815.286	1314.1	5.363
